Results taken from patent US12534457B2, “Heteroaryl derivative compounds, and uses thereof” (Voronoi Inc., priority 2021, dated 2026).

test system: Ba/F3 cells expressing EGFR Del19/C797S (EGFR DC); assay: Proliferation inhibitory activity, Ba/F3 cells expressing EGFR Del19/C797S (CellTiter-Glo); format: cell-based; conditions: 72 hours of compound treatment
Experimental: The following experiments were performed to evaluate the inhibitory activity of the compounds according to the present disclosure on Ba/F3 proliferation expressing EGFR C797S, L861Q, G719A, S768I, L718Q, and/or G724S mutations.
For Ba/F3 cells, RPMI-1640 containing 10% FBS and 5 ng/ml IL-3 (R&D Systems) was used. Transduced Ba/F3 cells were cultured after adding 1 μg/ml puromycin (Invitrogen) to the same medium.
At 24 hours before treatment with the compounds, 3000 to 5000 cells were aliquoted into each well of a white clear bottom 96 well plate (Corning). The compounds were diluted in dimethyl sulfoxide (3 times dilution, 12 concentrations in total), and injected in an amount of 1 μl so that the final concentration was 0.2 nM to 5 uM. For measurement of living cells, after 72 hours of compound treatment, the cells were stored at room temperature for 10 min using CellTiter-Glo luminescentcell-viability reagent (Promega), and then luminescence intensity was measured using a reader (SynergyNeo, Biotek). Each test was repeated three times. Result values were calculated as the cell growth rate (%) compared to the control. The graphs were created using GraphPad Prism version 8.3.0 program and the GI50 values were calculated.

GI50 | SMILES
< 50 nM | COc1cc(Nc2cc(N3OCC[C@@H]3c3cc(F)cc(F)c3)ncn2)ccc1N1CCC(N2CCN(C)CC2)CC1 [Example 26]
< 50 nM | COc1cc(N2CCC(N3CCCN(C)CC3)CC2)ccc1Nc1cc(N2OCC[C@@H]2c2cccc(F)c2F)ncn1 [Example 221]

same assay, conditions: Mus musculus, BaF3, 72 hours of compound treatment

SMILES | GI50
CCN1C2CC1CN(C1CCN(c3ccc(Nc4cc(N5OCC[C@@H]5c5cccc(F)c5F)ncn4)c(OC)c3)CC1)C2 [Example 219, 6-((R)-3-(2,3-difluorophenyl)isoxazolidin-2-yl)-N-(4-(4-(6-ethyl-3,6-diazabicyclo[3.1.1]heptan-3-yl)piperidin-1-yl)-2-methoxyphenyl)pyrimidin-4-amine] | < 50 nM
CCc1cc(Nc2cc(N3OCC[C@@H]3c3ccccc3)ncn2)c(OC)cc1N1CCC(N2CCN(C)CC2)CC1 [Example 109, (R)—N-(5-ethyl-2-methoxy-4-(4-(4-methylpiperazin-1-yl)piperidin-1-yl)phenyl)-6-(3-phenylisoxazolidin-2-yl)pyrimidin-4-amine] | < 50 nM
COc1cc(N2CCC(N3CCN4CCCC4C3)CC2)c(NC(=O)CCCl)cc1Nc1cc(N2OCC[C@@H]2c2cc(F)cc(F)c2)ncn1 (stereo partly drawn) [Example 86, 3-chloro-N-(5-((6-((R)-3-(3,5-difluorophenyl)isoxazolidin-2-yl)pyrimidin-4-yl)amino)-2-(4-(hexahydropyrrolo[1,2-a]pyrazin-2 (1H)-yl)piperidin-1-yl)-4-methoxyphenyl)propanamide] | < 50 nM
CN1CCN(C2CCN(c3ccc(Nc4cc(N5OCC[C@@H]5c5cc(F)cc(F)c5)ncn4)cc3C(F)(F)F)CC2)CC1 [Example 23, (R)-6-(3-(3,5-difluorophenyl)isoxazolidin-2-yl)-N-(4-(4-(4-methylpiperazin-1-yl)piperidin-1-yl)-3-(trifluoromethyl)phenyl)pyrimidin-4-amine] | 50 to 500 nM
COc1cc(N2CCN(C3CCN(C)CC3)CC2)ccc1Nc1cc(N2OCC[C@@H]2c2ccccc2)ncn1 [Example 101, (R)—N-(2-methoxy-4-(4-(1-methylpiperidin-4-yl)piperazin-1-yl)phenyl)-6-(3-phenylisoxazolidin-2-yl)pyrimidin-4-amine] | < 50 nM
CN1CCC(N2CCN3c4ccc(Nc5cc(N6OCC[C@@H]6c6ccccc6)ncn5)cc4OC[C@H]3C2)CC1 [Example 48, (R)-3-(1-methylpiperidin-4-yl)-N-(6-((R)-3-phenylisoxazolidin-2-yl)pyrimidin-4-yl)-1,2,3,4,4a,5-hexahydrobenzo[b]pyrazino[1,2-d][1,4]oxazin-8-amine] | < 50 nM
Cc1cc(N2CCOCC2)ccc1Nc1cc(N2OCC[C@@H]2c2ccccc2)ncn1 [Example 108, (R)—N-(2-methyl-4-morpholinophenyl)-6-(3-phenylisoxazolidin-2-yl)pyrimidin-4-amine] | < 50 nM
COc1cc(N2CCC(N3CCC(N(C)C)CC3)CC2)ccc1Nc1cc(N2OCC[C@@H]2c2ccccc2)ncn1 [Example 115, (R)-1′-(3-methoxy-4-((6-(3-phenylisoxazolidin-2-yl)pyrimidin-4-yl)amino)phenyl)-N,N-dimethyl-[1,4′-bipiperidin]-4-amine] | < 50 nM
COc1cc(N2CCC(N3CCN(C)CC3)CC2)c(C)cc1Nc1cc(N2OCC[C@@H]2c2ccccc2)ncn1 [Example 114, (R)—N-(2-methoxy-5-methyl-4-(4-(4-methylpiperazin-1-yl)piperidin-1-yl)phenyl)-6-(3-phenylisoxazolidin-2-yl)pyrimidin-4-amine] | < 50 nM
CN1CCN(C2CCN(c3ccc(Nc4cc(N5OCC[C@@H]5c5cc(F)cc(F)c5)ncn4)cc3)CC2)CC1 [Example 17, (R)-6-(3-(3,5-difluorophenyl)isoxazolidin-2-yl)-N-(4-(4-(4-methylpiperazin-1-yl)piperidin-1-yl)phenyl)pyrimidin-4-amine] | 50 to 500 nM
CN1CCN(C2CCN(c3ccc(Nc4cc(N5OCC[C@@H]5c5ccccc5)ncn4)cc3)CC2)CC1 [Example 54, (R)—N-(4-(4-(4-methylpiperazin-1-yl)piperidin-1-yl)phenyl)-6-(3-phenylisoxazolidin-2-yl)pyrimidin-4-amine] | < 50 nM
CCN(CC)C1CCN(c2ccc(Nc3cc(N4OCC[C@@H]4c4ccccc4)ncn3)c(OC)c2)CC1 [Example 98, (R)—N-(4-(4-(diethylamino)piperidin-1-yl)-2-methoxyphenyl)-6-(3-phenylisoxazolidin-2-yl)pyrimidin-4-amine] | < 50 nM
COc1cc(Nc2cc(N3OCC[C@@H]3c3ccc(F)cc3)ncn2)ccc1N1CCC(N2CCN(C)CC2)CC1 [Example 96, (R)-6-(3-(4-fluorophenyl)isoxazolidin-2-yl)-N-(3-methoxy-4-(4-(4-methylpiperazin-1-yl)piperidin-1-yl)phenyl)pyrimidin-4-amine] | < 50 nM
CN1CCN(c2ccc(Nc3cc(N4OCC[C@@H]4Cc4ccccc4)ncn3)cc2)CC1 [Example 3, (S)-6-(3-benzylisoxazolidin-2-yl)-N-(4-(4-methylpiperazin-1-yl)phenyl)pyrimidin-4-amine] | < 50 nM
CCC(=O)Nc1cc(Nc2cc(N3OCC[C@@H]3c3cc(F)cc(F)c3)ncn2)c(OC)cc1N1CCC(N2CCC(N(C)C)CC2)CC1 [Example 85, (R)—N-(5-((6-(3-(3,5-difluorophenyl)isoxazolidin-2-yl)pyrimidin-4-yl)amino)-2-(4-(dimethylamino)-[1,4′-bipiperidin]-1′-yl)-4-methoxyphenyl)propionamide] | < 50 nM
COc1cc(N2CCC(N3CCCC3)CC2)ccc1Nc1cc(N2OCC[C@@H]2c2ccccc2)ncn1 [Example 62, (R)—N-(2-methoxy-4-(4-(pyrrolidin-1-yl)piperidin-1-yl)phenyl)-6-(3-phenylisoxazolidin-2-yl)pyrimidin-4-amine] | < 50 nM
COc1cc2c(cc1Nc1cc(N3OCC[C@@H]3c3cc(F)cc(F)c3)ncn1)N(C(=O)C(F)(F)F)CC21CCN(C)CC1 [Example 152, (R)-1-(6-((6-(3-(3,5-difluorophenyl)isoxazolidin-2-yl)pyrimidin-4-yl)amino)-5-methoxy-1′-methylspiro[indolin-3,4′-piperidin]-1-yl)-2,2,2-trifluoroethan-1-one] | < 50 nM
C=CCN1CCN(c2ccc(Nc3cc(N4OCC[C@@H]4c4ccccc4)ncn3)cc2)CC1 [Example 68, (R)—N-(4-(4-allylpiperazin-1-yl)phenyl)-6-(3-phenylisoxazolidin-2-yl)pyrimidin-4-amine] | < 50 nM

More lines, now with the values ahead:

GI50 | SMILES
< 50 nM | COc1cc(N2CCC(N3CCN(C)[C@@H](C)C3)CC2)ccc1Nc1cc(N2OCC[C@@H]2c2cccc(F)c2F)ncn1 [Example 214, 6-((R)-3-(2,3-difluorophenyl)isoxazolidin-2-yl)-N-(4-(4-((S)-3,4-dimethylpiperazin-1-yl)piperidin-1-yl)-2-methoxyphenyl)pyrimidin-4-amine]
< 50 nM | COc1cc(C2CCN(C)CC2)ccc1Nc1cc(N2OCC[C@@H]2c2cccc(F)c2F)ncn1 [Example 141, (R)-6-(3-(2,3-difluorophenyl)isoxazolidin-2-yl)-N-(2-methoxy-4-(1-methylpiperidin-4-yl)phenyl)pyrimidin-4-amine]
50 to 500 nM | CN1CCN(c2ccc(Nc3cc(N4OCC[C@@H]4c4cncc(Cl)c4)ncn3)cc2)CC1 [Example 180, (R)-6-(3-(5-chloropyridin-3-yl)isoxazolidin-2-yl)-N-(4-(4-methylpiperazin-1-yl)phenyl)pyrimidin-4-amine]
50 to 500 nM | COc1cc(N2CCC(N3CCN(C)CC3)CC2)ccc1Nc1cc(N2OCC[C@@H]2c2cccc(N(C)C)c2)ncn1 [Example 131, (R)-6-(3-(3-(dimethylamino)phenyl)isoxazolidin-2-yl)-N-(2-methoxy-4-(4-(4-methylpiperazin-1-yl)piperidin-1-yl)phenyl)pyrimidin-4-amine]
50 to 500 nM | COc1cc(N2CCC(N3CCN(C)CC3)CC2)ccc1Nc1cc(N2Oc3ccccc3C2c2ccccc2)ncn1 (centres unmarked) [Example 230, N-(2-methoxy-4-(4-(4-methylpiperazin-1-yl)piperidin-1-yl)phenyl)-6-(3-phenylbenzo[d]isoxazol-2 (3H)-yl)pyrimidin-4-amine]
50 to 500 nM | Fc1cc(F)cc([C@H]2CCON2c2cc(Nc3cccc4c3OCC4)ncn2)c1 [Example 159, (R)-6-(3-(3,5-difluorophenyl)isoxazolidin-2-yl)-N-(2,3-dihydrobenzofuran-7-yl)pyrimidin-4-amine]
< 50 nM | COc1cc(N2CCC(N3CCN(C)CC3)CC2)ccc1Nc1cc(N2OCC[C@@H]2c2cncc(Cl)c2)ncn1 [Example 182, (R)-6-(3-(5-chloropyridin-3-yl)isoxazolidin-2-yl)-N-(2-methoxy-4-(4-(4-methylpiperazin-1-yl)piperidin-1-yl)phenyl)pyrimidin-4-amine]
< 50 nM | CC(=O)N1CCN(c2ccc(Nc3cc(N4OCC[C@@H]4c4ccccc4)ncn3)cc2)CC1 [Example 122, (R)-1-(4-(4-((6-(3-phenylisoxazolidin-2-yl)pyrimidin-4-yl)amino)phenyl)piperazin-1-yl)ethan-1-one]
< 50 nM | Cn1cc(-c2cc(Nc3cc(N4OCC[C@@H]4c4ccccc4)ncn3)c(OCC(F)(F)F)cc2N2CCOCC2)cn1 [Example 167, (R)—N-(5-(1-methyl-1H-pyrazol-4-yl)-4-morpholino-2-(2,2,2-trifluoroethoxy)phenyl)-6-(3-phenylisoxazolidin-2-yl)pyrimidin-4-amine]
